Measurements reported in patent US9896441B2 (Lycera Corporation, priority 2014, dated 2018).
pEC50: −log10 of the molar value.

Experiments:
RORγ-LBD = biological target: T1, RORγ-LBD (Homo sapiens, UniProt P51449); assay: RORγ-Ligand Binding Domain (LBD) TR-FRET Assay; type: biochemical; conditions: for TR-FRET Assay Max Response: maximum response;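 for TR-FRET Assay Max Response: 665/615 nm signal ratio set to 100 without ursolic acid or test compound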
T1 construct: made in house; host or cells: SF9 cells (baculovirus); used as diluted lysate
T1 sequence (P51449 269-508 limits assumed): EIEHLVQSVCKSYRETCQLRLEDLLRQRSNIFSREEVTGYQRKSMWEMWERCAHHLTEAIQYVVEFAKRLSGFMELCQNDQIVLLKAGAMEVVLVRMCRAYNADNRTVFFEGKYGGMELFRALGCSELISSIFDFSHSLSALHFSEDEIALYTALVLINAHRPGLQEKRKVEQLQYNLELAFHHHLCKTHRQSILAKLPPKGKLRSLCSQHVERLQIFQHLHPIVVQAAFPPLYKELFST
In short: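 Lysate from SF9 cells expressing His-RORγ-LBD is diluted to about 3 nM final in 50 mM Tris pH 7.0 assay buffer. A biotin-tagged SRC1 LXXLL peptide goes in at 200 nM final, plus ursolic acid at 2 μM final. Test compounds carry 1% DMSO final; signal read by TR-FRET.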

Gal4-RORγ-LBD = biological target: T2, Gal4-RORγ-LBD (Homo sapiens, UniProt P51449); assay: Gal4-RORγ Luciferase Reporter Assay in HEK-293T Cells; type: cell-based; conditions: HEK-293 cells; for Gal4-RORγ Assay Max Response: maximum response
T2 construct: expressed in transfected cells
T2 sequence (P51449 269-508 limits assumed): T1 sequence (P51449 269-508 limits assumed)
In short: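 Max Response was taken as the upper plateau of a 4-parameter logistic fit of luciferase signal, normalized to 100 for wells without ursolic acid or compound. Transiently Gal4-RORγ-LBD/Gal4-luc transfected HEK-293 cells carrying […] ursolic acid were incubated with test compounds (0.2% DMSO) overnight at 37 °C and read with One-Glo.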

[1] = luciferase reporter, in presence of ursolic acid
[2] = luciferase reporter, with ursolic acid

| SMILES | pEC50 (RORγ-LBD; RORγ-LBD TR-FRET assay) | pEC50 (Gal4-RORγ-LBD; [1]) | pEC50 (RORγ-LBD; RORγ-LBD TR-FRET) | pEC50 (Gal4-RORγ-LBD; [2]) | pEC50 (RORγ-LBD; with 2 μM ursolic acid (RORγ antagonist), highest test concentration 10 μM) | pEC50 (Gal4-RORγ-LBD; ursolic acid present, luciferase readout) | TR-FRET Assay Max Response (RORγ-LBD; RORγ-LBD TR-FRET assay) | Gal4-RORγ Assay Max Response (Gal4-RORγ-LBD; [1]) |
| --- | --- | --- | --- | --- | --- | --- | --- | --- |
| C/C(=C\c1ccc2c(c1)N(S(=O)(=O)c1cccc(C(F)(F)F)c1)C[C@H](CCC(=O)N1CCS(=O)(=O)CC1)O2)c1c(F)cccc1Cl [Example 127C, (S,E)-3-(6-(2-(2-chloro-6-fluorophenyl)prop-1-en-1-yl)-4-((3-(trifluoro-methyl)phenyl)sulfonyl)-3,4-dihydro-2H-benzo[b][1,4]oxazin-2-yl)-1-(1,1-dioxidothio-morpholino)propan-1-one] | > 6.30 | > 6.30 |  |  |  |  | **** (a value greater than 200) | ** (a value in the range of greater than 90 to 150) |
| COc1cc(S(=O)(=O)N2CCCc3ccc(O[C@@H]4c5ccccc5C[C@H]4C)cc32)ccc1F (relative stereo) [Example 25E, 1-((4-fluoro-3-methoxyphenyl)sulfonyl)-7-(((trans)-2-methyl-2,3-dihydro-1H-inden-1-yl)oxy)-1,2,3,4-tetrahydroquinoline] |  |  | > 6.30 | 5.30 to 6.30 |  |  |  |  |
| O=C(O)C1CN(C(=O)CC[C@H]2CN(S(=O)(=O)c3cccc(C(F)(F)F)c3)c3cc(/C=C/c4c(Cl)cccc4C(F)(F)F)ccc3O2)C1 [Example 129G, (S,E)-1-(3-(6-(2-chloro-6-(trifluoromethyl)styryl)-4-((3-(trifluoromethyl)-phenyl)sulfonyl)-3,4-dihydro-2H-benzo[b][1,4]oxazin-2-yl)propanoyl)azetidine-3-carboxylic acid] | > 6.30 | > 6.30 |  |  |  |  | **** (a value greater than 200) | ** (a value in the range of greater than 90 to 150) |
| COC(=O)CC[C@H]1CN(S(=O)(=O)c2cccc(C(F)(F)F)c2)c2cc(/C=C(\C)c3c(Cl)cccc3Cl)ccc2O1 [Example 86AF, (S,E)-methyl 3-(6-(2-(2,6-dichlorophenyl)prop-1-en-1-yl)-4-((3-(trifluoromethyl)phenyl)-sulfonyl)-3,4-dihydro-2H-benzo[b][1,4]oxazin-2-yl)propanoate] |  |  | > 6.30 | 5.30 to 6.30 |  |  |  |  |
| COC(=O)CC[C@H]1CN(S(=O)(=O)c2cccc(OC(F)F)c2)c2cc(/C=C/c3ccccc3C#N)ccc2O1 [Example 89AR, (S,E)-methyl 3-(6-(2-cyanostyryl)-4-((3-(difluoromethoxy)phenyl)sulfonyl)-3,4-dihydro-2H-benzo[b][1,4]-oxazin-2-yl)propanoate] |  |  | > 6.30 | 5.30 to 6.30 |  |  |  |  |
| O=C(O)CO[C@@H]1Cc2ccc(OCc3c(F)cccc3Cl)cc2N(S(=O)(=O)c2cccc(C(F)(F)F)c2)C1 [Example 157, (R)-2-((7-((2-Chloro-6-fluorobenzyl)oxy)-1-((3-(trifluoromethyl)phenyl)sulfonyl)-1,2,3,4-tetrahydroquinolin-3-yl)oxy)acetic acid] | > 6.30 | 5.30 to 6.30 |  |  |  |  | ** (a value in the range of greater than 90 to 150) | ** (a value in the range of greater than 90 to 150) |
| COc1cc(S(=O)(=O)N2CCCc3ccc(OCc4c(C)cccc4Cl)cc32)ccc1F [Example 25W, 7-((2-chloro-6-methylbenzyl)oxy)-1-((4-fluoro-3-methoxyphenyl)sulfonyl)-1,2,3,4-tetrahydroquinoline] |  |  | > 6.30 | > 6.30 |  |  |  |  |
| C/C(=C\c1ccc2c(c1)N(S(=O)(=O)c1cccc(C(F)(F)F)c1)C[C@@H](N)C2)c1c(F)cccc1Cl [Example 166, (S,E)-7-(2-(2-Chloro-6-fluorophenyl)prop-1-en-1-yl)-1-((3-(trifluoromethyl)phenyl)sulfonyl)-1,2,3,4-tetrahydroquinolin-3-amine] | > 6.30 | 5.30 to 6.30 |  |  |  |  | *** (a value in the range of greater than 150 to 200) | ** (a value in the range of greater than 90 to 150) |
| C/C(=C\c1ccc2c(c1)N(S(=O)(=O)c1cccc(C(F)(F)F)c1)C[C@H](CCC(=O)N1CCCC1)O2)c1c(F)cccc1Cl [Example 126, (S,E)-3-(6-(2-(2-Chloro-6-fluorophenyl)prop-1-en-1-yl)-4-((3-(trifluoromethyl)phenyl)sulfonyl)-3,4-dihydro-2H-benzo[b][1,4]oxazin-2-yl)-1-(pyrrolidin-1-yl)propan-1-one] | > 6.30 | > 6.30 |  |  |  |  | ** (a value in the range of greater than 90 to 150) | ** (a value in the range of greater than 90 to 150) |
| COC(=O)CC[C@H]1CN(S(=O)(=O)c2cccc(C(F)(F)F)c2)c2cc(/C=C/c3c(Cl)cccc3C(C)(F)F)ccc2O1 [Example 89EW, methyl (S,E)-3-(6-(2-chloro-6-(1,1-difluoroethyl)styryl)-4-((3-(trifluoromethyl)phenyl)-sulfonyl)-3,4-dihydro-2H-benzo[b][1,4]oxazin-2-yl)propanoate] |  |  | > 6.30 | > 6.30 |  |  |  |  |
| C/C(=C\c1ccc2c(c1)N(S(=O)(=O)c1cccc(C(F)(F)F)c1)C[C@H]([C@@H](C)N)O2)c1c(F)cccc1Cl [Example 100, (R)-1-((R)-6-((E)-2-(2-Chloro-6-fluorophenyl)prop-1-en-1-yl)-4-((3-(trifluoromethyl)phenyl)sulfonyl)-3,4-dihydro-2H-benzo[b][1,4]oxazin-2-yl)ethan-1-amine] |  |  | > 6.30 | 5.30 to 6.30 |  |  |  |  |
| CCn1cc(S(=O)(=O)N2C[C@H](CCC(=O)OC)Oc3ccc(/C=C(\C)c4c(F)cccc4Cl)cc32)c(Cl)n1 [Example 86H, (S,E)-methyl 3-(4-((3-chloro-1-ethyl-1H-pyrazol-4-yl)sulfonyl)-6-(2-(2-chloro-6-fluorophenyl)prop-1-en-1-yl)-3,4-dihydro-2H-benzo[b][1,4]oxazin-2-yl)propanoate] |  |  | > 6.30 | 5.30 to 6.30 |  |  |  |  |

Further lines, with some results ahead:

| pEC50 (RORγ-LBD; RORγ-LBD TR-FRET assay) | pEC50 (Gal4-RORγ-LBD; [1]) | pEC50 (RORγ-LBD; RORγ-LBD TR-FRET) | pEC50 (Gal4-RORγ-LBD; [2]) | pEC50 (RORγ-LBD; with 2 μM ursolic acid (RORγ antagonist), highest test concentration 10 μM) | pEC50 (Gal4-RORγ-LBD; ursolic acid present, luciferase readout) | SMILES | TR-FRET Assay Max Response (RORγ-LBD; RORγ-LBD TR-FRET assay) | Gal4-RORγ Assay Max Response (Gal4-RORγ-LBD; [1]) |
| --- | --- | --- | --- | --- | --- | --- | --- | --- |
|  |  |  |  | > 6.30 | > 6.30 | O=C(O)CC[C@H]1CN(S(=O)(=O)c2cccc(C(F)(F)F)c2)c2cc(C3=CCCCC3)ccc2O1 [Example 193, (S)-3-(6-(cyclohex-1-en-1-yl)-4-((3-(trifluoromethyl)phenyl)sulfonyl)-3,4-dihydro-2H-benzo[b][1,4]oxazin-2-yl)propanoic acid] |  |  |
| > 6.30 | 5.30 to 6.30 |  |  |  |  | CCn1cc(S(=O)(=O)N2C[C@H](CNC(C)=O)Oc3ccc(/C=C/c4ncccc4Cl)cc32)c(Cl)n1 [Example 109E, (S,E)-N-((4-((3-chloro-1-ethyl-1H-pyrazol-4-yl)sulfonyl)-6-(2-(3-chloropyridin-2-yl)vinyl)-3,4-dihydro-2H-benzo[b][1,4]-oxazin-2-yl)methyl)acetamide] | **** (a value greater than 200) | ** (a value in the range of greater than 90 to 150) |
|  |  | > 6.30 | 5.30 to 6.30 |  |  | C/C(=C\c1cc2c(cc1F)O[C@@H](CCC(=O)O)CN2S(=O)(=O)c1cccc(C(F)(F)F)c1)c1c(F)cccc1Cl [Example 42, (S,E)-3-(6-(2-(2-Chloro-6-fluorophenyl)prop-1-en-1-yl)-7-fluoro-4-((3-(trifluoromethyl)phenyl)sulfonyl)-3,4-dihydro-2H-benzo[b][1,4]oxazin-2-yl)propanoic acid] |  |  |
| > 6.30 | > 6.30 |  |  |  |  | C/C(=C\c1ccc2c(c1)N(S(=O)(=O)c1cccc(C(F)(F)F)c1)C[C@H](CCCN1CCOCC1)O2)c1c(F)cccc1Cl [Example 119D, (S,E)-6-(2-(2-chloro-6-fluorophenyl)prop-1-en-1-yl)-2-(3-morpholinopropyl)-4-((3-(trifluoromethyl)-phenyl)sulfonyl)-3,4-dihydro-2H-benzo[b][1,4]oxazine] | *** (a value in the range of greater than 150 to 200) | ** (a value in the range of greater than 90 to 150) |
|  |  | > 6.30 | > 6.30 |  |  | COC(=O)CC[C@H]1CN(S(=O)(=O)c2cccc(C(F)F)c2)c2cc(/C=C/c3c(Cl)cccc3C(F)(F)F)ccc2O1 [Example 81, Methyl (S,E)-3-(6-(2-chloro-6-(trifluoromethyl)styryl)-4-((3-(difluoromethyl)phenyl)sulfonyl)-3,4-dihydro-2H-benzo[b][1,4]oxazin-2-yl)propanoate] |  |  |
|  |  | > 6.30 | 5.30 to 6.30 |  |  | C/C(=C\c1ccc2c(c1F)N(S(=O)(=O)c1cccc(C(F)(F)F)c1)C[C@H](CCC(=O)O)O2)c1c(F)cccc1Cl [Example 62, (S,E)-3-(6-(2-(2-Chloro-6-fluorophenyl)prop-1-en-1-yl)-5-fluoro-4-((3-(trifluoromethyl)phenyl)sulfonyl)-3,4-dihydro-2H-benzo[b][1,4]oxazin-2-yl)propanoic acid] |  |  |
| > 6.30 | 5.30 to 6.30 |  |  |  |  | CCn1cc(S(=O)(=O)N2C[C@H](CNC(C)=O)Oc3ccc(/C=C/c4c(F)cccc4Cl)cc32)c(Cl)n1 [Example 109D, (S,E)-N-((4-((3-chloro-1-ethyl-1H-pyrazol-4-yl)sulfonyl)-6-(2-chloro-6-fluorostyryl)-3,4-dihydro-2H-benzo[b][1,4]oxazin-2-yl)methyl)acetamide] | *** (a value in the range of greater than 150 to 200) | ** (a value in the range of greater than 90 to 150) |
